Results reported in ChEMBL document CHEMBL1137165, “Rational design of potent and selective NH-linked aryl/heteroaryl cathepsin K inhibitors” (Bioorg Med Chem Lett, 2004).

How the values were obtained:
[1] = target: Cathepsin K (Oryctolagus cuniculus, UniProt P43236); assay: Inhibitory concentration against humanized rabbit cathepsin K
[2] = Compound was evaluated for its increased potency in bone resorption assay; assay type: functional
[3] = target: Cathepsin S (Homo sapiens, UniProt P25774); assay: Inhibitory concentration against human cathepsin S
Chain of Cathepsin S (P25774 whole entry): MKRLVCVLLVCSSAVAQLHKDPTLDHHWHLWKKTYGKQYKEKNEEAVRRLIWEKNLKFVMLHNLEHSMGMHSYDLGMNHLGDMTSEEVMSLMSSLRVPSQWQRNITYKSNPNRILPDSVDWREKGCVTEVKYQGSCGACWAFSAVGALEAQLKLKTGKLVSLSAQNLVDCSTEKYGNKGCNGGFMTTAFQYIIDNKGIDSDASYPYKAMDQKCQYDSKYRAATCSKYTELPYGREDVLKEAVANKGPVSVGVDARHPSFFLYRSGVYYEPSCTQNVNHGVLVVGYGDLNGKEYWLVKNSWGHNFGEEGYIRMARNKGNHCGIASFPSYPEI

[4] = target: Procathepsin L (Homo sapiens, UniProt P07711); assay: Inhibitory concentration against human cathepsin L
Chain of Procathepsin L (P07711 whole entry): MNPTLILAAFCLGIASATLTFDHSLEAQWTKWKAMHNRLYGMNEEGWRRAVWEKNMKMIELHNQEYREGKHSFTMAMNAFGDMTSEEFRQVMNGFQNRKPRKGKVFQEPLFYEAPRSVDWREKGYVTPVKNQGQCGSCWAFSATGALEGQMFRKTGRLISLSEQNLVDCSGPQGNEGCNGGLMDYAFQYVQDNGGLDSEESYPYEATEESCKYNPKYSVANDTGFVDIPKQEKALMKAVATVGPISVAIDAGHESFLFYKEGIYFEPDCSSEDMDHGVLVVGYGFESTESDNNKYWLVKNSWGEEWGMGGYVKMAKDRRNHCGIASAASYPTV

[5] = target: Cathepsin B (Homo sapiens, UniProt P07858); assay: Inhibitory concentration against human cathepsin B
[6] = target: T1, Cathepsin K (Homo sapiens, UniProt P43235); assay: Inhibitory concentration against human cathepsin K
T1 sequence (P43235 whole entry): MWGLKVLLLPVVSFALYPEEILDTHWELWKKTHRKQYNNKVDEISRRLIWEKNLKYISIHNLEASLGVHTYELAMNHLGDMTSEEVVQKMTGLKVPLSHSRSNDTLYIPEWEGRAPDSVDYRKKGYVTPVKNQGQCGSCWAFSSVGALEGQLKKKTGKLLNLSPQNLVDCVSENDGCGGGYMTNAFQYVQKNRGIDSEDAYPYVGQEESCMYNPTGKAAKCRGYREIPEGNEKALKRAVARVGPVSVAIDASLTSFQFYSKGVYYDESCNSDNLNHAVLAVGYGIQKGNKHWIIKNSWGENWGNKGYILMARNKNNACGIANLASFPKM

IC50 [1]	IC50 [3]	IC50 [4]	IC50 [5]	IC50 [6]	SMILES	Activity [2]
684 nM	–	–	–	–	CC(C)CC(Sc1cccc(Br)c1)C(=O)NCC#N (stereo not given)	–
2350 nM	–	–	–	–	CC(C)CC(Cc1ccccc1Br)C(=O)NCC#N (stereo not given)	–
11 nM	–	–	–	–	CC(C)C[C@@H](C(=O)NCC#N)c1cccc(-c2ccc(N3CCNCC3)cc2)c1	95 nM
54 nM	–	–	–	–	CC(C)CC(Nc1ccccc1Br)C(=O)NCC#N (stereo not given)	–
2 nM	24 nM	108 nM	93 nM	–	CC(C)C[C@H](Nc1cccc(-c2ccc(N3CCNCC3)cc2)c1)C(=O)NCC#N	61 nM
1150 nM	–	–	–	–	CC(C)CC(Oc1ccccc1Br)C(=O)NCC#N (stereo not given)	–
1470 nM	–	–	–	–	CC(C)CC(Oc1cccc(Br)c1)C(=O)NCC#N (stereo not given)	–
675 nM	–	–	–	–	CC(C)CC(Sc1ccc(Br)cc1)C(=O)NCC#N (stereo not given)	–
3390 nM	–	–	–	–	CC(C)CC(Cc1cccc(Br)c1)C(=O)NCC#N (stereo not given)	–
27 nM	34 nM	115 nM	26 nM	–	CC(C)C[C@H](Nc1ccc(-c2ccc(N3CCNCC3)cc2)cc1)C(=O)NCC#N	37 nM
433 nM	–	–	–	–	CC(C)CC(Sc1ccccc1Br)C(=O)NCC#N (stereo not given)	–
208 nM	–	–	–	–	CC(C)CC(Nc1ccc(Br)cc1)C(=O)NCC#N (stereo not given)	–
43 nM	897 nM	458 nM	158 nM	–	CC(C)C[C@H](Nc1cscc1Br)C(=O)NCC#N	71 nM
3000 nM	–	–	–	–	CC(C)CC(Oc1ccc(Br)cc1)C(=O)NCC#N (stereo not given)	–
3 nM	158 nM	2100 nM	1810 nM	–	CC(C)C[C@H](Nc1ccccc1-c1ccc(N2CCNCC2)cc1)C(=O)NCC#N	9 nM
2390 nM	–	–	–	–	CC(C)CC(Cc1ccc(Br)cc1)C(=O)NCC#N (stereo not given)	–
72 nM	–	–	–	–	CC(C)CC(Nc1cccc(Br)c1)C(=O)NCC#N (stereo not given)	–
1 nM	102 nM	352 nM	123 nM	0.2 nM	CC(C)C[C@H](Nc1cscc1-c1ccc(N2CCNCC2)cc1)C(=O)NCC#N	10 nM
